Results: article PMC7870075, “Physicochemical properties and formulation development of a novel compound inhibiting Staphylococcus aureus biofilm formation” (PLoS ONE, 2021)
“And” between values parts separate entries of the source, which are not always exact repeats. Equal entries are not always repeated. Marks after values point to notes of the source that are not given here.

Tests used:
[1] = Effect of pH on CCG-211790 degradation; format: physicochemical; conditions: for CCG-211790 concentration: 37°C; for chemical stability: twelve weeks
Procedure: The concentration of CCG-211790 in deionized water or aqueous solutions was determined using an Agilent series 1100 HPLC system (Agilent Technologies, Santa Clara, CA, USA) equipped with diode array detector. Sample separation was carried out with a Kinetex C18 column (75 mm × 3 mm, particle size 2.6 μm, Phenomenex Inc., Torrance, CA, USA). The mobile phase of acetonitrile-water (50:50, v/v) was used for chromatographic separation. The flow rate was set to 0.5 mL/min, column temperature to 35°C. The absorption was measured at wavelength 255 nm. The injection volume was 30 μL. The retention time of CCG-211790 was 4.9 min. The method detection limit was 0.02 mg/L. Calibration curves were established giving a correlation coefficient >0.9900. Effect of pH on CCG-211790 degradation was investigated at indicated pH (1–10) over a period of three months. Briefly, pH 1, 2 or 10 were achieved by dissolving CCG-211790 bulk powder in a mixture of acetonitrile and water (25:75, v/v) with the pH being adjusted with hydrochloride acid solution (12 mole/L) or sodium hydroxide solution (15 mole/L). Similarly, pH 3–9 were achieved by dissolving CCG-211790 powder in a mixture of acetonitrile and PBS (25:75, v/v) with the pH also being adjusted with the hydrochloride acid solution or the sodium hydroxide solution. All samples were incubated at 37°C. CCG-211790 concentrations in the mixture solutions were determined via HPLC analysis at predetermined time points (0, 2, 4 and 12 weeks).

S. aureus NRS384 strain = assay: Biofilm assay (96-well microtiter plate, crystal violet staining); format: cell-based, Staphylococcus aureus; conditions: for Inhibition of biofilm formation (vs treated with DMSO %): NRS384, single replicates
Procedure: Methicillin-resistant Staphylococcus aureus (MRSA) USA300 strain NRS384 (Strain USA300-0114, NR-46070), was provided by the Network on Antimicrobial Resistance in Staphylococcus aureus (NARSA) for distribution by BEI Resources, NIAID, NIH. The NRS384 strain was grown in Todd-Hewitt broth containing 0.2% yeast extract (THY) (Difco, Detroit, MI, USA). The medium for growth of static biofilms was THY with 0.5% glucose. All bacterial cultures were incubated at 37°C.
The biofilm assay was performed using 96-well polystyrene flat-bottom microtiter plate as described previously. Overnight cultures of S. aureus were diluted 1:200 with fresh THY medium containing 0.5% glucose. […] Non-adherent bacteria were washed away by PBS three times. Biofilms attached to microtiter plates were stained by crystal violet solution (Sigma-Aldrich, St. Louis, MO, USA) for 15 min. Excess stain was removed by washing with PBS. The crystal violet attached to biofilm samples was dissolved with ethanol. The absorbance at 595 nm was measured using Spectrostar Nano spectrophotometer (BMG Labtech, Ortenberg, Germany) as the value of biofilm formation. Percentage inhibition of sample treated with CCG-211790 was calculated against the mean of samples treated with DMSO. […] IC50 (the half maximal inhibitory concentration) was estimated.
Statistical analysis of the results was performed using a two-sided Student’s t-test. Dose Response fitting function in Origin was used to calculate the IC50. The IC50 was calculated by plotting the inhibition percentage (y) versus logarithm of dose (x), and fitting the data using the equation y=A1+A2−A1/1+10^(Logx0−x)p . IC50 was calculated as 10^logx0 . A1 stands for bottom asymptote, A2 stands for top asymptote and p is the hill slope (Origin 7.0, OriginLab Corporation, Northampton, MA, USA).

COc1ccc2c(c1)-c1nc(SCC(F)(F)F)n(C)c(=O)c1C(C)(C)C2 [CCG-211790, 9-Methoxy-3,5,5-trimethyl-2-((2,2,2-trifluoroethyl)thio)-5,6-dihydrobenzo[h]quinazolin-4(3H)-one]
CCG-211790 concentration ([1]; pH 1, 0 week, acetonitrile/water): 11.1 µg/mL | CCG-211790 concentration ([1]; pH 1, 2 weeks, acetonitrile/water): 9.4 ^* μg/mL | CCG-211790 concentration ([1]; pH 1, 4 weeks, acetonitrile/water): 7.2 ^** μg/mL | CCG-211790 concentration ([1]; pH 1, 12 weeks, acetonitrile/water): 2.1 ^** μg/mL | chemical stability ([1]; pH 1, 37°C): degraded | CCG-211790 concentration ([1]; pH 2, 0 week, acetonitrile/water): 11.6 µg/mL | CCG-211790 concentration ([1]; pH 2, 2 weeks, acetonitrile/water): 11.9 µg/mL | CCG-211790 concentration ([1]; pH 2, 4 weeks, acetonitrile/water): 11.2 ^* μg/mL | CCG-211790 concentration ([1]; pH 2, 12 weeks, acetonitrile/water): 10.7 ^* μg/mL | chemical stability ([1]; pH 2–10, 37°C): maintained most chemical stability | CCG-211790 concentration ([1]; pH 3, 0 week, acetonitrile/PBS): 11.9 µg/mL | CCG-211790 concentration ([1]; pH 3, 2 weeks, acetonitrile/PBS): 11.9 µg/mL | CCG-211790 concentration ([1]; pH 3, 4 weeks, acetonitrile/PBS): 11.4 µg/mL | CCG-211790 concentration ([1]; pH 3, 12 weeks, acetonitrile/PBS): 11.7 µg/mL | CCG-211790 concentration ([1]; pH 4, 0 week, acetonitrile/PBS): 10.9 µg/mL | CCG-211790 concentration ([1]; pH 4, 2 weeks, acetonitrile/PBS): 11.4 µg/mL | CCG-211790 concentration ([1]; pH 4, 4 weeks, acetonitrile/PBS): 11.6 ^* μg/mL | CCG-211790 concentration ([1]; pH 4, 12 weeks, acetonitrile/PBS): 11.3 µg/mL | CCG-211790 concentration ([1]; pH 5, 0 week, acetonitrile/PBS): 11.0 µg/mL | CCG-211790 concentration ([1]; pH 5, 2 weeks, acetonitrile/PBS): 11.3 ^* μg/mL | CCG-211790 concentration ([1]; pH 5, 4 weeks, acetonitrile/PBS): 11.5 µg/mL | CCG-211790 concentration ([1]; pH 5, 12 weeks, acetonitrile/PBS): 11.2 µg/mL | CCG-211790 concentration ([1]; pH 6, 0 week, acetonitrile/PBS): 11.1 µg/mL | CCG-211790 concentration ([1]; pH 6, 2 weeks, acetonitrile/PBS): 11.4 µg/mL | CCG-211790 concentration ([1]; pH 6, 4 weeks, acetonitrile/PBS): 11.0 µg/mL | CCG-211790 concentration ([1]; pH 6, 12 weeks, acetonitrile/PBS): 10.1 µg/mL | CCG-211790 concentration ([1]; pH 7, 0 week, acetonitrile/PBS): 11.8 µg/mL | CCG-211790 concentration ([1]; pH 7, 2 weeks, acetonitrile/PBS): 11.2 ^* μg/mL | CCG-211790 concentration ([1]; pH 7, 4 weeks, acetonitrile/PBS): 10.9 ^* μg/mL | CCG-211790 concentration ([1]; pH 7, 12 weeks, acetonitrile/PBS): 11.5 µg/mL | CCG-211790 concentration ([1]; pH 8, 0 week, acetonitrile/PBS): 11.2 µg/mL | CCG-211790 concentration ([1]; pH 8, 2 weeks, acetonitrile/PBS): 11.2 µg/mL | CCG-211790 concentration ([1]; pH 8, 4 weeks, acetonitrile/PBS): 11.1 µg/mL | CCG-211790 concentration ([1]; pH 8, 12 weeks, acetonitrile/PBS): 11.6 µg/mL | CCG-211790 concentration ([1]; pH 9, 0 week, acetonitrile/PBS): 11.0 µg/mL | CCG-211790 concentration ([1]; pH 9, 2 weeks, acetonitrile/PBS): 11.3 ^* μg/mL | CCG-211790 concentration ([1]; pH 9, 4 weeks, acetonitrile/PBS): 11.2 µg/mL | CCG-211790 concentration ([1]; pH 9, 12 weeks, acetonitrile/PBS): 10.5 µg/mL | CCG-211790 concentration ([1]; pH 10, 0 week, acetonitrile/water): 10.4 µg/mL | CCG-211790 concentration ([1]; pH 10, 2 weeks, acetonitrile/water): 11.0 ^* μg/mL | CCG-211790 concentration ([1]; pH 10, 4 weeks, acetonitrile/water): 10.5 µg/mL | CCG-211790 concentration ([1]; pH 10, 12 weeks, acetonitrile/water): 10.7 ^* μg/mL | Inhibition of biofilm formation (vs treated with DMSO %) (S. aureus NRS384 strain; 0.39 µM): 3.94% and -13.46% and 12.53% and 16.63% and 8.53% and 4.38% and 18.40% and 26.22% and 15.26% | Inhibition of biofilm formation (vs treated with DMSO %) (S. aureus NRS384 strain; 0.78 µM): 8.82% and 2.09% and 10.90% and 24.07% and 16.41% and 12.91% and 26.42% and 26.03% and 21.14% | Inhibition of biofilm formation (vs treated with DMSO %) (S. aureus NRS384 strain; 1.56 µM): 29.00% and 47.10% and 40.37% and 45.73% and 49.67% and 47.05% and 51.47% and 53.42% and 52.45% | Inhibition of biofilm formation (vs treated with DMSO %) (S. aureus NRS384 strain; 3.13 µM): 41.76% and 55.22% and 48.72% and 60.18% and 56.46% and 59.74% and 54.01% and 55.58% and 57.14% | Inhibition of biofilm formation (vs treated with DMSO %) (S. aureus NRS384 strain; 6.25 µM): 62.41% and 64.27% and 61.48% and 70.02% and 63.24% and 70.24% and 69.08% and 70.25% and 66.93% | Inhibition of biofilm formation (vs treated with DMSO %) (S. aureus NRS384 strain; 12.50 µM): 65.20% and 63.57% and 64.97% and 75.93% and 70.24% and 70.02% and 75.73% and 75.34% and 73.19% | Inhibition of biofilm formation (vs treated with DMSO %) (S. aureus NRS384 strain; 25.00 µM): 70.30% and 69.84% and 74.25% and 79.43% and 78.99% and 75.05% and 76.52% and 81.02% and 80.63% | Inhibition of biofilm formation (vs treated with DMSO %) (S. aureus NRS384 strain; 50.00 µM): 79.58% and 79.12% and 79.35% and 82.49% and 82.28% (2×) and 80.23% and 79.06% and 83.76% | IC50 (S. aureus NRS384 strain; Staphylococcus aureus, MRSA / NRS 384 / USA300, S. aureus NRS384 (MRSA USA300), overnight 37°C, crystal violet, read-out: IC50 of the inhibition of biofilm formation): 1.28 ± 0.45 µM
